Data from patent US11292787B2, “Five-membered-fused-six-membered aza-aromatic ring compound, preparation method thereof, pharmaceutical composition and application thereof” (XIAMEN UNIVERSITY, priority 2017, dated 2022).

The compounds below were run against T1, K-Ras protein (Homo sapiens, UniProt P01116, G12V) (assay: K-Ras protein degradation rate by Western blot in SW-620 cells). Conditions: 10 μM, SW-620 cells, 24 h, Western blot, relative to DMSO control; read-out: Degradation rate of compounds at 10 μM on Ras protein (%).
T1 construct: in SW620 cells, compound I-a-1 can effectively enhance the degradation of endogenous K-RAS-G12V proteins; endogenous in cells; host or cells: SW-620
T1 sequence (P01116 1-188 isoform P01116-2 G12V): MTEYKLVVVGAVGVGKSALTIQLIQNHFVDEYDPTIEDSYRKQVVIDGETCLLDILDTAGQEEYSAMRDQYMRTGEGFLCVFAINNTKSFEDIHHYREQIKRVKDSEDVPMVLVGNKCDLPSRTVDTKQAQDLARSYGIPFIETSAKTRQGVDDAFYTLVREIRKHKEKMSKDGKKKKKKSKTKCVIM
Assay type: cell-based
Method: Inhibitory activity of compounds on K-RAS was evaluated by the degradation rate of protein level of administration group relative to control group (Cell Rep 2014, 7, 871-882).
The specific method was as follows:
1. Cell plating: SW-620 cells in logarithmic growth phase were inoculated into a 24-well plate at 2×10^4/well, and cultured in a 37° C., 5% CO2 incubator.
2. Administering drug to cells: after 24 h of culture, various drug stocks […]; the original solution in the 24-well plate was discarded, to which was added the obtained drug solution, with the DMSO group as the blank control; after the drug solution was added, the 24-well plate was transferred to the 37° C. CO2 incubator to continue the culture.
3. Detection of K-Ras protein level: after 24 h of administration and culture, the liquid in the well was discarded, the cells were routinely collected, and rinsed twice with 1×PBS, a cell lysate was added to extract the total cellular protein, and the protein concentration was determined by BCA method. 30 μg of the protein sample was taken for SDS-polyacrylamide gel electrophoretic transmembrane, the membrane was blocked sequentially, incubated with K-Ras antibody (1:1000) and internal reference antibody β-actin (1:2000) respectively overnight at 4° C., rinsed with TBST for 5 min×3 times, then incubated with the addition of the corresponding horseradish peroxidase-labeled secondary antibody (1:5000) for 1-2 h, and rinsed with TBST for 5 min×3 times. Finally, chemiluminescence image was acquired using Image Lab software.
4. Calculation of single-point K-Ras protein degradation rate: quantitative and calibration analysis of K-Ras and β-actin were conducted using Image-Lab software, and then the intracellular K-Ras degradation rate was calculated according to the following formula: single-point K-Ras protein degradation rate (%)=(control group−administration group)/control group×100%. The drug with degradation rate ≥20% was selected for soft agar experiment.
`O=S(=O)(NCc1c(F)cccc1Cl)c1c[nH]c(-c2n[nH]c3ncccc23)c1` [III-g-4] was tested, and the percent K-Ras protein degradation (single point) at 10 µM was 12%.
Compound `O=S(=O)(Cc1ccccc1)c1c[nH]c(-c2n[nH]c3ncccc23)c1` [III-h-1] has a percent K-Ras protein degradation (single point) at 10 µM of 14%.
`O=S(=O)(Cc1c(Cl)cccc1Cl)c1c[nH]c(-c2n[nH]c3ncccc23)c1` [III-h-3] gave a percent K-Ras protein degradation (single point) at 10 µM of 18%.
`O=S(=O)(Cc1c(F)cccc1Cl)c1c[nH]c(-c2n[nH]c3ncccc23)c1` [III-h-4] gave a percent K-Ras protein degradation (single point) at 10 µM of 41%.
Compound `O=S(=O)(Cc1ccc(Cl)cc1)c1c[nH]c(-c2n[nH]c3ncccc23)c1` [III-h-5] has a percent K-Ras protein degradation (single point) at 10 µM of 16%.
Compound `O=C(NCc1c(F)cccc1Cl)c1csc(-c2c[nH]c3ccccc23)c1` [IV-a-1] has a percent K-Ras protein degradation (single point) at 10 µM of 10%.
Compound `O=C(Nc1ccccc1)c1csc(-c2c[nH]c3ccccc23)c1` [IV-a-2] has a percent K-Ras protein degradation (single point) at 10 µM of 50%.
With `O=C(NC1CCCCC1)c1csc(-c2c[nH]c3ccccc23)c1` [IV-a-3] the percent K-Ras protein degradation (single point) at 10 µM was 35%.
`O=C(NCc1c(F)cccc1Cl)c1coc(-c2c[nH]c3ccccc23)c1` [IV-c-1] gave a percent K-Ras protein degradation (single point) at 10 µM of 30%.
Compound `O=C(Nc1ccccc1)c1coc(-c2c[nH]c3ccccc23)c1` [IV-c-2] has a percent K-Ras protein degradation (single point) at 10 µM of 50%.
`O=C(NCc1c(F)cccc1Cl)c1ccc(-c2c[nH]c3ccccc23)cc1` [IV-e-1] showed a percent K-Ras protein degradation (single point) at 10 µM of 30%.
`O=C(Nc1ccccc1)c1ccc(-c2c[nH]c3ccccc23)cc1` [IV-e-2] gave a percent K-Ras protein degradation (single point) at 10 µM of 20%.
`O=C(NC1CCCCC1)c1ccc(-c2c[nH]c3ccccc23)cc1` [IV-e-3] showed a percent K-Ras protein degradation (single point) at 10 µM of 40%.
Compound `O=C(NCc1c(F)cccc1Cl)c1ccc(-c2c[nH]c3ccccc23)s1` [IV-f-1] has a percent K-Ras protein degradation (single point) at 10 µM of 10%.
With `O=C(NCc1c(F)cccc1Cl)c1coc(-c2cnc3ccccn23)c1` [IX-c-1] the percent K-Ras protein degradation (single point) at 10 µM was 40%.
Work on `O=C(Nc1ccccc1)c1coc(-c2cnc3ccccn23)c1` [IX-c-2] yielded a percent K-Ras protein degradation (single point) at 10 µM of 40%.
For `O=C(NCc1c(F)cccc1Cl)c1cccc(-c2cnc3ccccn23)c1` [IX-d-1], the percent K-Ras protein degradation (single point) at 10 µM was 30%.
`O=C(NCc1c(F)cccc1Cl)c1ccc(-c2cnc3ccccn23)cc1` [IX-e-1] was tested, and the percent K-Ras protein degradation (single point) at 10 µM was 40%.
`O=C(Nc1ccccc1)c1ccc(-c2cnc3ccccn23)cc1` [IX-e-2] was tested, and the percent K-Ras protein degradation (single point) at 10 µM was 50%.
For `O=C(NCc1c(F)cccc1Cl)c1ccc(-c2cnc3ccccn23)s1` [IX-f-1], the percent K-Ras protein degradation (single point) at 10 µM was 50%.
Compound `CC(C)(C)n1nc(-c2cc(C(=O)Nc3ccccc3)cs2)c2c(N)ncnc21` [VI-a-2] has a percent K-Ras protein degradation (single point) at 10 µM of 30%.
`CC(C)(C)n1nc(-c2cccc(C(=O)NCc3c(F)cccc3Cl)c2)c2c(N)ncnc21` [VI-d-1] was tested, and the percent K-Ras protein degradation (single point) at 10 µM was 30%.
Work on `CC(C)(C)n1nc(-c2cccc(C(=O)Nc3ccccc3)c2)c2c(N)ncnc21` [VI-d-2] yielded a percent K-Ras protein degradation (single point) at 10 µM of 30%.
`O=C(NCc1c(F)cccc1Cl)c1csc(-c2cnc3cnccn23)c1` [VII-a-1] was tested, and the percent K-Ras protein degradation (single point) at 10 µM was 5%.
`O=C(NCc1cccc(C(F)(F)F)c1)c1csc(-c2cnc3cnccn23)c1` [VII-a-2] showed a percent K-Ras protein degradation (single point) at 10 µM of 60%.
`O=C(NCc1cc(C(F)(F)F)ccc1F)c1csc(-c2cnc3cnccn23)c1` [VII-a-3] showed a percent K-Ras protein degradation (single point) at 10 µM of 30%.
With `O=C(NCc1c(F)cccc1Cl)c1c[nH]c(-c2cnc3cnccn23)c1` [VII-b-1] the percent K-Ras protein degradation (single point) at 10 µM was 20%.
Work on `O=C(Nc1ccccc1)c1c[nH]c(-c2cnc3cnccn23)c1` [VII-b-2] yielded a percent K-Ras protein degradation (single point) at 10 µM of 20%.
`O=C(NC1CCCCC1)c1c[nH]c(-c2cnc3cnccn23)c1` [VII-b-3] showed a percent K-Ras protein degradation (single point) at 10 µM of 10%.
`O=C(NCc1c(F)cccc1Cl)c1ccc(-c2cnc3cnccn23)cc1` [VII-e-1] showed a percent K-Ras protein degradation (single point) at 10 µM of 30%.
Work on `O=C(Nc1ccccc1)c1ccc(-c2cnc3cnccn23)cc1` [VII-e-2] yielded a percent K-Ras protein degradation (single point) at 10 µM of 20%.
In the case of `O=C(NC1CCCCC1)c1ccc(-c2cnc3cnccn23)cc1` [VII-e-3], the percent K-Ras protein degradation (single point) at 10 µM is reported as 30%.
In the case of `O=C(NCc1c(F)cccc1Cl)c1ccc(-c2cnc3cnccn23)s1` [VII-f-1], the percent K-Ras protein degradation (single point) at 10 µM is reported as 25%.
In the case of `O=C(Nc1ccccc1)c1ccc(-c2cnc3cnccn23)s1` [VII-f-2], the percent K-Ras protein degradation (single point) at 10 µM is reported as 30%.
In the case of `O=C(NC1CCCCC1)c1ccc(-c2cnc3cnccn23)s1` [VII-f-3], the percent K-Ras protein degradation (single point) at 10 µM is reported as 20%.
Compound `O=C(NCc1c(F)cccc1Cl)c1csc(-c2cnc3cccnn23)c1` [VIII-a-1] has a percent K-Ras protein degradation (single point) at 10 µM of 40%.
Compound `O=C(NCc1cccc(C(F)(F)F)c1)c1csc(-c2cnc3cccnn23)c1` [VIII-a-2] has a percent K-Ras protein degradation (single point) at 10 µM of 60%.
In the case of `O=C(NCc1cc(C(F)(F)F)ccc1F)c1csc(-c2cnc3cccnn23)c1` [VIII-a-3], the percent K-Ras protein degradation (single point) at 10 µM is reported as 50%.
Compound `O=C(NCc1c(F)cccc1Cl)c1c[nH]c(-c2cnc3cccnn23)c1` [VIII-b-1] has a percent K-Ras protein degradation (single point) at 10 µM of 20%.
`O=C(Nc1ccccc1)c1c[nH]c(-c2cnc3cccnn23)c1` [VIII-b-2] was tested, and the percent K-Ras protein degradation (single point) at 10 µM was 10%.
In the case of `O=C(NC1CCCCC1)c1c[nH]c(-c2cnc3cccnn23)c1` [VIII-b-3], the percent K-Ras protein degradation (single point) at 10 µM is reported as 2%.
With `O=C(NCc1c(F)cccc1Cl)c1coc(-c2cnc3cccnn23)c1` [VIII-c-1] the percent K-Ras protein degradation (single point) at 10 µM was 12%.
`O=C(Nc1ccccc1)c1coc(-c2cnc3cccnn23)c1` [VIII-c-2] showed a percent K-Ras protein degradation (single point) at 10 µM of 10%.
With `O=C(NCc1c(F)cccc1Cl)c1cccc(-c2cnc3cccnn23)c1` [VIII-d-1] the percent K-Ras protein degradation (single point) at 10 µM was 2%.
For `O=C(NC1CCCCC1)c1ccc(-c2cnc3cccnn23)cc1` [VIII-e-3], the percent K-Ras protein degradation (single point) at 10 µM was 20%.
`O=C(NC1CCCCC1)c1ccc(-c2cnc3cccnn23)s1` [VIII-f-3] was tested, and the percent K-Ras protein degradation (single point) at 10 µM was 15%.
Compound `O=C(NCc1c(F)cccc1Cl)c1coc(-c2nnc3ccccn23)c1` [X-c-1] has a percent K-Ras protein degradation (single point) at 10 µM of 10%.
For `O=C(NCc1c(F)cccc1Cl)c1ccc(-c2nnc3ccccn23)cc1` [X-e-1], the percent K-Ras protein degradation (single point) at 10 µM was 10%.
In the case of `O=C(NCc1c(F)cccc1Cl)c1ccc(-c2nnc3ccccn23)s1` [X-f-1], the percent K-Ras protein degradation (single point) at 10 µM is reported as 20%.
